According to paper PMC10633873 (ACS Omega, 2023):
Starred links: 1 amine or outer side, 2 acyl side, 3 side chain; linkers in the order of their positions; H or OH if unused. Positions of bridges follow the written chain, without caps; N, C: chain ends. Non-standard residues stand in square brackets, D forms with d. Residues, ends and D or L forms follow the SMILES beside them. Chains are numbered I, II in the order given. Actinocin(9to1) = Cc1c2oc3c(C)ccc(C(=O)[*:1])c3nc-2c(C(=O)[*:2])c(N)c1=O; NMeV = CN[C@H](C(=O)O)C(C)C; Sar = CNCC(=O)O

Experiments:
[1] = target: T1, HEV-RdRp (Hepatitis E virus genotype 1, UniProt P33424); experiment: HEV-RdRp enzyme activity; format: biochemical
T1 sequence (P33424 1207-1693 limits assumed): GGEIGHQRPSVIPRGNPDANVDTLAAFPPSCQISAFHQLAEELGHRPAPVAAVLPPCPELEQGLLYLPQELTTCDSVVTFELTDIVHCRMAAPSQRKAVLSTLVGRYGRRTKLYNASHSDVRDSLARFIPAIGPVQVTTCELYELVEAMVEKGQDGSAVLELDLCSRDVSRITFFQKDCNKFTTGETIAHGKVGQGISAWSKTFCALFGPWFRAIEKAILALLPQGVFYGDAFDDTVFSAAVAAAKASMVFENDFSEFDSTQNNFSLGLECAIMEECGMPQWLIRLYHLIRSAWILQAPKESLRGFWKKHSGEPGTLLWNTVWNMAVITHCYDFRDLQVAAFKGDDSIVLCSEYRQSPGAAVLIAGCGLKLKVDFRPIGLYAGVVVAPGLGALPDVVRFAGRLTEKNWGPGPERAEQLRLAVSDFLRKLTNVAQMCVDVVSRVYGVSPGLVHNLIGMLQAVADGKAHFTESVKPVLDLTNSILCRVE

[2] = Cell viability by MTT assay; format: cell-based; settings: human, Huh7 cells
[3] = test system: HEV; experiment: Immunofluorescence assay of ORF2 expression in HEV RNA-transfected Huh7 cells; format: cell-based, Hepatitis E virus; settings: Huh7, anti-HEV-ORF2, 4–5 days after transfection
[4] = test system: HEV; experiment: Effect on viral replication; format: cell-based, Hepatitis E virus; settings: concentration and assay not stated
[5] = test system: HEV genotype 3 (pSHEV-3); experiment: Viral RNA copy number by qPCR in Huh7 cells transfected with full-length HEV RNA; format: cell-based, Hepatitis E virus; settings: 5 days post transfection, vs untreated cells

SMILES | IC50 [1] [µM] | effect on polymerase activity of HEV-RdRp [1] | CC50 at 72 h [2] [µM] | further results
Nc1nc2c(ncn2[C@@H]2O[C@H](COP(=O)(O)OP(=O)(O)OP(=O)(O)O)[C@@H](O)[C@H]2O)c(=O)[nH]1 [GTP] |  |  |  | Km ([1]; GTP varied 0 to 8 mM, 5 μM enzyme, poly(C) 1 μg, Michaelis–Menten fit): 400 µM
Cc1c2oc3c(C)ccc(C(=O)N[C@@H]4C(=O)N[C@H](C(C)C)C(=O)N5CCC[C@H]5C(=O)N(C)CC(=O)N(C)[C@@H](C(C)C)C(=O)O[C@@H]4C)c3nc-2c(C(=O)N[C@@H]2C(=O)N[C@H](C(C)C)C(=O)N3CCC[C@H]3C(=O)N(C)CC(=O)N(C)[C@@H](C(C)C)C(=O)O[C@@H]2C)c(N)c1=O [actinomycin-D] (I: T[dV]P[Sar][NMeV] / II: T[dV]P[Sar][NMeV]; ester I:1-I:C, II:1-II:C; linker I:N-II:N via Actinocin(9to1)) |  |  |  | effect on enzyme activity of RdRp ([1]; 5 μM actinomycin-D added to the reaction mixture): no significant effect
NC(=O)c1nc(F)c[nH]c1=O [favipiravir] | 10.2 ± 4.9 | reduced the polymerase activity | < 500 | effect on HEV replication (ORF2 mean fluorescence intensity) [3]: significantly inhibited HEV replication
CCc1cc(CC[C@]2(C3CCCC3)CC(O)=C(Cc3nc4nc(C)cc(C)n4n3)C(=O)O2)cc(CC)n1 [filibuvir] |  | reduced the polymerase activity |  | 
Nc1ccn([C@@H]2CS[C@H](CO)O2)c(=O)n1 [lamivudine] |  |  |  | effect on in vitro enzyme activity of HEV-RdRp ([1]; concentration not given): inhibited; effect on viral replication [4]: did not show any effect
CCC(CC)COC(=O)[C@H](C)N[P@](=O)(OC[C@H]1O[C@@](C#N)(c2ccc3c(N)ncnn23)[C@H](O)[C@@H]1O)Oc1ccccc1 [remdesivir] |  | did not show any effect |  | 
NC(=O)c1ncn([C@@H]2O[C@H](CO)[C@@H](O)[C@H]2O)n1 [ribavirin] | 3.5 ± 1.6 | reduced the polymerase activity | < 100 | % reduction of viral RNA ([5]; 100 μM): ∼72%
CC(C)OC(=O)[C@H](C)N[P@](=O)(OC[C@H]1O[C@@H](n2ccc(=O)[nH]c2=O)[C@](C)(F)[C@@H]1O)Oc1ccccc1 [sofosbuvir] | 5.2 ± 2.9 | reduced the polymerase activity | < 125 | % reduction of viral RNA ([5]; 125 μM): ∼68%
